Experimental data from patent US6525001B1, “Substituted pyrimidine and pyridine herbicides” (Mid-American Commercialization Corporation, priority 1997, dated 2003).

Assays:
Assay type in all cases: in vivo
Set-up in all cases: key: 0 is no effect; 10 is complete control
[1] = test system: bamyardgrass (Echinochloa crus-galli); test: Test B flood test
Procedure, shortened: (§1)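 Flood test on plants grown to the 2-leaf stage; treated plants kept in greenhouse twelve to sixteen days, then visually rated against controls on a 0 (no effect) to 10 (complete control) scale.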

[2] = test system: duck salad (Heteranthera limosa); test: Test B flood test
Procedure, shortened: as §1

[3] = test system: rice (Oryza sativa); test: Test B flood test
Procedure, shortened: as §1

[4] = test system: smallflower flatsedge (Cyperus difformis); test: Test B flood test
Procedure, shortened: as §1

[5] = test system: rape (Brassica napus); test: Test B pre-/postemergence
Procedure, shortened: (§2)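 Scored visually 0 (none) to 10 (complete control) against untreated plants after twelve to sixteen greenhouse days. Test chemicals, formulated in surfactant-containing non-phytotoxic solvent, applied to soil after planting and, separately, onto 1- to 4-leaf (2–18 cm) plants.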

[6] = test system: bedstraw (Galium aparine); test: Test B pre-/postemergence
Procedure, shortened: as §2

[7] = Rate 62 g/ha, Postemergence (flood test)
[8] = Rate 125 g/ha, Postemergence, flood test
[9] = Rate 250 g/ha, Postemergence (flood test species)
[10] = Rate 500 g/ha, Postemergence (flood test species)

Row | Structure (SMILES) | Plant response rating, Barnyardgrass [1, 7] | Plant response rating, Barnyardgrass [1, 8] | Plant response rating, Barnyardgrass [1, 9] | Plant response rating, Barnyardgrass [1, 10] | Plant response rating, Ducksalad [2, 7] | Plant response rating, Ducksalad [2, 8] | Plant response rating, Ducksalad [2, 9] | Plant response rating, Ducksalad [2, 10] | Plant response rating, Rice [3, 7] | Plant response rating, Rice [3, 8] | Plant response rating, Rice [3, 9] | Plant response rating, Rice [3, 10] | Plant response rating, S. Flatsedge [4, 7] | Plant response rating, S. Flatsedge [4, 8] | Plant response rating, S. Flatsedge [4, 9] | Plant response rating, S. Flatsedge [4, 10] | Plant response rating, Rape ([5]; Rate 62 g/ha, Postemergence) | Rape plant response rating ([5]; Rate 62 g/ha, Preemergence) | Plant response rating, Rape ([5]; Rate 125 g/ha, Postemergence) | Rape plant response rating ([5]; Rate 125 g/ha, Preemergence) | also measured
1 | Cc1cnc(-c2ccc(C(F)(F)F)cc2)nc1Cn1cnc(C(F)(F)F)c1 [Compound 10] | 1 | 2 | 3 | 4 | 1 | 1 | 3 | 5 | 0 | 2 | 2 | 3 | 6 | 9 | 9 | 9 | 8 | 3 | 9 | 4 | Plant response rating, Rape ([5]; Rate 250 g/ha, Postemergence): 9; Plant response rating, Rape ([5]; Rate 250 g/ha, Preemergence): 4; Plant response rating, Rape ([5]; Rate 500 g/ha, Postemergence): 9; Plant response rating, Rape ([5]; Rate 500 g/ha, Preemergence): 7; Plant response rating, Bedstraw ([6]; Rate 62 g/ha, Postemergence): 8; Bedstraw plant response rating ([6]; Rate 62 g/ha, Preemergence): 3; Plant response rating, Bedstraw ([6]; Rate 125 g/ha, Postemergence): 9; Bedstraw plant response rating ([6]; Rate 125 g/ha, Preemergence): 7; Plant response rating, Bedstraw ([6]; Rate 250 g/ha, Postemergence): 10; Plant response rating, Bedstraw ([6]; Rate 250 g/ha, Preemergence): 7; Plant response rating, Bedstraw ([6]; Rate 500 g/ha, Postemergence): 10; Plant response rating, Bedstraw ([6]; Rate 500 g/ha, Preemergence): 10
2 | Cc1cnc(-c2ccc(OC(F)(F)F)cc2)nc1Cc1cccc(C(F)(F)F)c1 [Compound 16] | 2 | 3 | 4 | 4 | 0 | 0 | 1 | 2 | 1 | 1 | 3 | 4 | 1 | 2 | 2 | 3 | 1 | 0 | 2 | 0 | Plant response rating, Rape ([5]; Rate 250 g/ha, Postemergence): 2; Plant response rating, Rape ([5]; Rate 250 g/ha, Preemergence): 0; Plant response rating, Rape ([5]; Rate 500 g/ha, Postemergence): 5; Plant response rating, Rape ([5]; Rate 500 g/ha, Preemergence): 1; Plant response rating, Bedstraw ([6]; Rate 62 g/ha, Postemergence): 3; Bedstraw plant response rating ([6]; Rate 62 g/ha, Preemergence): 0; Plant response rating, Bedstraw ([6]; Rate 125 g/ha, Postemergence): 4; Bedstraw plant response rating ([6]; Rate 125 g/ha, Preemergence): 0; Plant response rating, Bedstraw ([6]; Rate 250 g/ha, Postemergence): 4; Plant response rating, Bedstraw ([6]; Rate 250 g/ha, Preemergence): 0; Plant response rating, Bedstraw ([6]; Rate 500 g/ha, Postemergence): 5; Plant response rating, Bedstraw ([6]; Rate 500 g/ha, Preemergence): 1
